Measurements as given in patent publication US6608047B2, “Use of low dosage amount of spironolactone for treatment of cardiovascular disease” (Pharmacia Corporation, priority 1995, dated 2003).

Experiments:
hypertensive-rat cohort = conditions: spironolactone sub-cutaneously; C.G. Brilla et al 1993; cited from earlier work
myocardial fibrosis = conditions: cited from earlier work
[1] = system: patients with symptomatic heart failure; test: Human clinical trial (spironolactone dose-ranging study): cardiac assessments, weight and vital signs; type: in vivo
From the text: (§1) All statistical methods were two-sided.

[2] = system: patients with symptomatic heart failure; test: Human clinical trial (spironolactone dose-ranging study): clinical laboratory values and neurohormones; conditions: for Creatinine, Week 12 Mean Change / Hematocrit, Week 12 Mean Change / Hemoglobin, Week 12 Mean Change / N-Terminal ANF, Week 12 Mean Change / PRA, Week 12 Mean Change / Potassium, Week 12 Mean Change / Sodium, Week 12 Mean Change / Urinary aldosterone, Week 12 Mean Change: Week 12 vs baseline
[3] = system: patients with symptomatic heart failure; test: Human clinical trial (spironolactone dose-ranging study): hyperkalemia, adverse events, hospitalizations, deaths
From the text: as §1
In this analysis, the risk ratio can be thought of as the probability that the patient with the risk factor will develop hyperkalemia, relative to the probability that a patient without the risk factor will develop it.

plasma aldosterone = conditions: hypertensive patients; J. Staessen et al 1981; cited from earlier work

Structure (SMILES): CC(=O)S[C@@H]1CC2=CC(=O)CC[C@]2(C)[C@H]2CC[C@@]3(C)[C@@H](CC[C@@]34CCC(=O)O4)[C@H]12 [Spironolactone, 17-hydroxy-7α-mercapto-3-oxo-17α-pregn-4-ene-21-carboxylic acid γ-lactone acetate]
- Fibrosis in the hypertensive-rat cohort (hypertensive-rat cohort): prevent fibrosis
- Myocardial fibrosis in animal models (myocardial fibrosis; D. Klug et al 1993): prevents myocardial fibrosis
- Fibrosis in animal models (myocardial fibrosis; irrespective of left ventricular hypertrophy and hypertension, C.G. Brilla et al 1993): prevent fibrosis
- Mean Change in Supine diastolic BP from Baseline to Week 12 ([1]; 12.5 mg/d): −0.19 (9.13)
- Mean Change in Supine pulse from Baseline to Week 12 ([1]; 12.5 mg/d): −3.70 (9.56) BPM
- Mean Change in Supine systolic BP from Baseline to Week 12 ([1]; 12.5 mg/d): 1.84 (11.82)
- Mean Change in Weight from Baseline to Week 12 ([1]; 12.5 mg/d): 0.59 (3.00)
- Mean systolic and diastolic blood pressure (standing and supine) ([1]; 25 mg, 50 mg and 75 mg groups, all visits): decreases in mean systolic and diastolic blood pressure
- Mean Change in Supine diastolic BP from Baseline to Week 12 ([1]; 25 mg/d): −2.74 (9.57)
- Mean Change in Supine pulse from Baseline to Week 12 ([1]; 25 mg/d): −1.40 (10.00) BPM
- Mean Change in Supine systolic BP from Baseline to Week 12 ([1]; 25 mg/d): −4.46 (13.97)
- Mean Change in Weight from Baseline to Week 12 ([1]; 25 mg/d): −0.16 (3.02)
- Mean Change in Supine diastolic BP from Baseline to Week 12 ([1]; 50 mg/d): −5.11 (11.11)
- Mean Change in Supine pulse from Baseline to Week 12 ([1]; 50 mg/d): −3.21 (11.27) BPM
- Mean Change in Supine systolic BP from Baseline to Week 12 ([1]; 50 mg/d): −7.04 (15.83)
- Mean Change in Weight from Baseline to Week 12 ([1]; 50 mg/d): 0.62 (2.05)
- Changes from baseline in body weight ([1]; 75 mg dose group, Day 9 and Week 4): more weight loss than other patients
- Mean Change in Supine diastolic BP from Baseline to Week 12 ([1]; 75 mg/d): −5.91 (9.05)
- Mean Change in Supine pulse from Baseline to Week 12 ([1]; 75 mg/d): −1.07 (13.79) BPM
- Mean Change in Supine systolic BP from Baseline to Week 12 ([1]; 75 mg/d): −5.68 (15.62)
- Mean Change in Weight from Baseline to Week 12 ([1]; 75 mg/d): −0.81 (2.70)
- Sodium retention score, dose response ([1]; Day 9 (p=0.019), not seen at later visits): more reduction in sodium retention score
- Pulse in the supine position, dose response ([1]; Week 4 (p-value=0.045)): greater decreases in pulse in the supine position at higher doses
- Changes in loop diuretic therapy ([1]; Week 8 (p=0.004), higher doses vs placebo, not observed at Week 12): decreases in the loop diuretic dose
- NYHA Class ([1]; spironolactone groups vs placebo, difference not statistically significant): trend toward improvement
- Creatinine, Week 12 Mean Change ([2]; 12.5 mg/d): 6.83 µmol/L
- Hematocrit, Week 12 Mean Change ([2]; 12.5 mg/d): 0.00%
- Hemoglobin, Week 12 Mean Change ([2]; 12.5 mg/d): 0.12 mmol/L/Fe
- N-Terminal ANF, Week 12 Mean Change ([2]; 12.5 mg/d): -287.30 pmol/L
- PRA, Week 12 Mean Change ([2]; 12.5 mg/d): 9.90 NgAngl/L/s
- Potassium, Week 12 Mean Change ([2]; 12.5 mg/d): 0.18 mmol/L
- Sodium, Week 12 Mean Change ([2]; 12.5 mg/d): -1.61 mmol/L
- Urinary aldosterone, Week 12 Mean Change ([2]; 12.5 mg/d): 4.21 nmol/D
- Creatinine, Week 12 Mean Change ([2]; 25 mg/d): 9.30 µmol/L
- Hematocrit, Week 12 Mean Change ([2]; 25 mg/d): −0.02%
- Hemoglobin, Week 12 Mean Change ([2]; 25 mg/d): −0.20 mmol/L/Fe
- N-Terminal ANF, Week 12 Mean Change ([2]; 25 mg/d): -294.60 pmol/L
- PRA, Week 12 Mean Change ([2]; 25 mg/d): 9.33 NgAngl/L/s
- Potassium, Week 12 Mean Change ([2]; 25 mg/d): 0.37 mmol/L
- Sodium, Week 12 Mean Change ([2]; 25 mg/d): -1.85 mmol/L
- Urinary aldosterone, Week 12 Mean Change ([2]; 25 mg/d): 4.27 nmol/D
- Creatinine, Week 12 Mean Change ([2]; 50 mg/d): 14.06 µmol/L
- Hematocrit, Week 12 Mean Change ([2]; 50 mg/d): −0.02%
- Hemoglobin, Week 12 Mean Change ([2]; 50 mg/d): −0.31 mmol/L/Fe
- N-Terminal ANF, Week 12 Mean Change ([2]; 50 mg/d): -351.30 pmol/L
- PRA, Week 12 Mean Change ([2]; 50 mg/d): 13.18 NgAngl/L/s
- Potassium, Week 12 Mean Change ([2]; 50 mg/d): 0.51 mmol/L
- Sodium, Week 12 Mean Change ([2]; 50 mg/d): -2.52 mmol/L
- Urinary aldosterone, Week 12 Mean Change ([2]; 50 mg/d): 8.11 nmol/D
- Creatinine, Week 12 Mean Change ([2]; 75 mg/d): 21.90 µmol/L
- Hematocrit, Week 12 Mean Change ([2]; 75 mg/d): −0.03%
- Hemoglobin, Week 12 Mean Change ([2]; 75 mg/d): −0.46 mmol/L/Fe
- N-Terminal ANF, Week 12 Mean Change ([2]; 75 mg/d): -370.60 pmol/L
- PRA, Week 12 Mean Change ([2]; 75 mg/d): 10.23 NgAngl/L/s
- Potassium, Week 12 Mean Change ([2]; 75 mg/d): 0.58 mmol/L
- Sodium, Week 12 Mean Change ([2]; 75 mg/d): -3.37 mmol/L
- Urinary aldosterone, Week 12 Mean Change ([2]; 75 mg/d): 11.13 nmol/D
- Change from baseline in PRA, dose-response ([2]; Day 9, Week 4 and Week 12, higher doses): greater increases in PRA
- N-Terminal Atrial Natriuretic Factor (ANF), change from baseline ([2]; all active treatments, all treatment visits): decreases from baseline
- Urinary aldosterone excretion, change from baseline ([2]; all treatment groups, 12 week visit): mean increases from baseline
- Change from baseline in serum potassium, dose-response ([2]; all treatment period visits, higher doses): larger increases in potassium
- Deaths during the drug treatment period ([3]; all dose groups, 12 weeks): No deaths were reported
- Hyperkalemia incidence, dose-response ([3]; human, in vivo): clear dose-response in term of incidence
- Patients died within 30 days after the study was completed ([3]; previously at the 50 mg dose): Three

Structure (SMILES): C[C@H](CS)C(=O)N1CCC[C@H]1C(=O)O [Captopril, captopril]
- Plasma aldosterone despite continued ACE inhibition (plasma aldosterone): gradual return of plasma aldosterone to baseline levels
